Experimental data reported in patent publication US20200345725A1, “Methods and Compositions for Treating Cancer” (Omeros Corporation, priority 2019, published 2020).
Several values for one entry are separate records, joined by “and”; a condition that tells them apart may be missing. Equal entries are not always repeated. Marks after values point to notes of the source that are not given here.

Columns and labels:
Format in all cases: cell-based
GPR174 [1] = target: T1, GPR174 (Homo sapiens, UniProt Q9BXC1); test: Cellular redistribution assay (CRA) for GPR174
From the text: One method for identifying compounds capable of modulating a receptor is using a cellular redistribution assay (“CRA”). Exemplary CRA methods are found in U.S. Pat. No. 7,309,576 issued to O'Dowd et al. and in O'Dowd et al., J. Biomol. Screen. 12:175-85,2007. […] Incorporation of the NLS alters the cellular localization of the GPCR, such that the majority of the NLS-modified receptor is present in the cell interior. An NLS-modified GPCR, when interacting with a functionally active compound, is mostly localized on the cell surface. Thus, it becomes possible to identify receptor modulators without knowledge of the endogenous ligand or a surrogate ligand.
The inventors have identified a number of compounds that inhibit GPR174 using a CRA assay similar to that described in U.S. Pat. No. 7,309,576 and in O'Dowd et al., J. Biomol. Screen. 12:175-85, 2007. These compounds are described in detail below.
(§1) The inventors used a CRA similar to that described in U.S. Pat. No. 7,309,576 and O'Dowd et al., J. Biomol. Screen. 12:175-85, 2007 to identify compounds that are capable of interacting with GPR174 using a library of approximately 370,000 chemical entities. Briefly described, the CRA assay described in U.S. Pat. No. 7,309,576 involves artificially inserting a NLS into the dopamine D1 receptor (DRD1), which allows the receptor to traffic from the cell membrane to the cell interior, and that the binding of antagonists to the receptor retained the receptor at the cell surface, while removal of the ligand allowed the receptor to continue to internalize from the cell surface. Both antagonists and agonists that selectively bound the receptor retained the receptor on the plasma membrane. GPR174 constructs were generated for use in a CRA-based compound screening assay. From this screen, the inventors initially identified compounds of formula I-VI, as described herein and included in Table 1.
Target sequence in this assay (Q9BXC1 1-292 limits assumed): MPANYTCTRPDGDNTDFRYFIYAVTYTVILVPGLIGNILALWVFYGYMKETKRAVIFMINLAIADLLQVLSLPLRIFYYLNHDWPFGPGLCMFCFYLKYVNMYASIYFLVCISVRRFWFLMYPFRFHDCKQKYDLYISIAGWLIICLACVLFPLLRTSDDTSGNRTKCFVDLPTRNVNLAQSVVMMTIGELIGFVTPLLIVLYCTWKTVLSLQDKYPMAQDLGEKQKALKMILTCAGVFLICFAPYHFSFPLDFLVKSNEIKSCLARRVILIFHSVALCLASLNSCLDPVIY

ADBR2 = target: T2, ADBR2 (Homo sapiens, UniProt P07550); test: CRE-Luc reporter assay with control receptor ADBR2
T2 construct: host or cells: HEK293 or CHO cell lines (ATCC)
T2 sequence (P07550 whole entry): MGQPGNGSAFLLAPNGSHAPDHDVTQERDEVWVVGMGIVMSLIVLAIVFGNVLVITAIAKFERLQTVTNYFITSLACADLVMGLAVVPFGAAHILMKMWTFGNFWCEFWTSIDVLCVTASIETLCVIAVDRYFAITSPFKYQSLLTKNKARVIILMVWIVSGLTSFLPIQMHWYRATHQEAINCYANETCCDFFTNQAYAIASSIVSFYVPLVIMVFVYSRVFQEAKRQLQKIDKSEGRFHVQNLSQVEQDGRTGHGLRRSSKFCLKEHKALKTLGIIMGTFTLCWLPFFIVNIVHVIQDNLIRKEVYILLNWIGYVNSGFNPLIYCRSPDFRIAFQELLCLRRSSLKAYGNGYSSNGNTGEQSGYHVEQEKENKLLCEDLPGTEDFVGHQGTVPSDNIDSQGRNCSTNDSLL
Protocol: The DNA/lipofectamine 2000 mix (3000 μL) was incubated at room temperature for 30 minutes and then added into a 10 cm culture dish (Corning, NY) containing 70-90% confluent cultured cells, (HEK293 or CHO cell lines (ATCC, VA)), in 15 mL of media. […] The cells were further incubated at 37° C. for various times. The media were removed and the cells lysed.
Compounds were tested in the reporter system with increasing concentrations of GPR174-interacting compounds.
The DNA/lipofectamine 2000 mix (3000 μL) was incubated at room temperature for 30 minutes and then added into a 10 cm culture dish (Corning, NY) containing 70-90% confluent cultured cells, typically HEK293 or CHO cell lines (ATCC, VA), in 15 mL of media. […] Media (26 mL) were added to the detached cells and 120 μL of transfected cells were transferred to each well on a 96-well plate. Increasing concentration of each compound in DMSO (1.2 μl) was added to the cells after plating into the 96-well plate. The cells were further incubated at 37° C. for various times. The media were removed, and the cells lysed.
ADBR2 is a GPCR, like GPR174, that activates the Gs signaling pathway.

human PBMCs = test: Th1 cytokines in supernatants of stimulated human PBMC, GPR174 inhibitor with adenosine pathway inhibitors (Examples 15, 18-22); settings: donor 7; for synergy with ZM on GM-CSF (greater than the sum of the increases with each inhibitor alone) / synergy with ZM on IFN-γ (greater than the sum of the increases with each inhibitor alone) / synergy with ZM on IL-2 (greater than the sum of the increases with each inhibitor alone) / synergy with ZM on TNF (greater than the sum of the increases with each inhibitor alone): high and low concentrations, ZM 0.1 μM
Protocol: Human PBMCs, obtained from a human volunteer donor, were dispensed at density of 1×10^6 cells/well in a 96-well flat-bottom plate and were stimulated in triplicate with 1 μg/mL anti-CD3 antibody (UCHT1) and 0.1 μg/mL anti-CD28 antibody (CD28.2) in the presence of:
Supernatants from these cells were collected at 24 hours post-stimulation and the levels of IFN-γ were determined by ELISA assay. Statistical analysis was carried out using one-way ANOVA with Tukey's post-hoc multiple comparison's correction.
Human PBMCs, obtained from a human volunteer donor (donor 1), were dispensed in X-vivo15 media (Lonza) supplemented with Glutamax, penicillin and streptomycin, at density of 1×10^6 cells/well in a 96-well flat-bottom plate and were stimulated with 1 μg/mL anti-CD3 antibody (UCHT1) and 0.1 μg/mL anti-CD28 antibody (CD28.2) in the presence of:
Supernatants from these cells were collected at 24 hours post-stimulation and the levels of IFN-γ, IL-2 and TNF were determined by ELISA assays.
Human PBMCs, obtained from two individual human volunteer donors (donor 2 and donor 3), were dispensed at density of 1×10^6 cells/well in a 96-well flat-bottom plate and were stimulated with 1 μg/mL anti-CD3 antibody (UCHT1) and 0.1 μg/mL anti-CD28 antibody (CD28.2) in the presence of:
Human PBMCs, obtained from twelve individual human volunteer donors were dispensed at density of 1×10^6 cells/well in a 96-well flat-bottom plate and were stimulated in triplicate with 1 μg/mL anti-CD3 antibody (UCHT1) and 0.1 μg/mL anti-CD28 antibody (CD28.2) in the presence of:
A total of 44 experiments using PBMC from 12 healthy donors were tested (9 donors for GM-CSF), with each donor tested in 1 to 8 separate experiments, depending on the donor (1 to 4 experiments each for GM-CSF). […] Cytokines were detected in supernatants with the Legendplex (Biolegend) or the MSB (MesoScale) platforms. […] One-way ANOVA with Tukey's post-hoc multiple comparisons correction was performed to identify significant differences (FC, mean fold change; ****, p<0.0001, ***, p<0.001; **, p<0.01; *, p<0.05, ns, not significant).
Human PBMC (1×10^6 cells/well in a 96-well flat-bottom plate) obtained from donor 3 and donor 6 were stimulated with 1 μg/mL anti-CD3 antibody (UCHT1) and 0.1 μg/mL anti-CD28 antibody (CD28.2) in the presence of:
Supernatants from these cells were collected at 24 hours post-stimulation and the levels of IFN-γ, IL-2, and TNF were determined with the MSD platform (MesoScale Discovery).
Human PBMC (1×10^6 cells/well in a 96-well flat-bottom plate) obtained from donor 7 were stimulated with 1 μg/mL […] (UCHT1) and 0.1 μg/mL anti-CD28 antibody (CD28.2) in the presence of:
Supernatants from these cells were collected at 24 hours post-stimulation and the levels of IFN-γ, IL-2, TNF and GM-CSF were determined with the MSD platform (MesoScale Discovery).
Supernatants from these cells were collected at 24 hours post-stimulation and the levels of IFN-γ, IL-2 and TNF were determined with the MSD platform (MesoScale Discovery).

GPR174 [2] = target: T1, GPR174; test: CRE-Luc reporter Gs signaling assay with GPR174; parameters: host or cells: HEK293 or CHO cell lines (ATCC)
Target sequence in this assay (Q9BXC1 whole entry): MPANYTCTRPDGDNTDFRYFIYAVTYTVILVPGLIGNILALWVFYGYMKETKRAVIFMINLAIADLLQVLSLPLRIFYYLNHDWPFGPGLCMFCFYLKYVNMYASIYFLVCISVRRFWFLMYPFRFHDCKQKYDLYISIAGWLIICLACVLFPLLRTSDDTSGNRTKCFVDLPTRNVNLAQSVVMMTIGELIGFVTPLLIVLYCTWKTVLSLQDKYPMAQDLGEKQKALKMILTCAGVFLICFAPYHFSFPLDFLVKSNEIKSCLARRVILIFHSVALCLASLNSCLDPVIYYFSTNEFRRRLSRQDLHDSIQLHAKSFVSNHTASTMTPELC

CHRM1 = test: CRA against CHRM1
From the text: as §1
The inventors also sought to validate that the compounds identified using the CRA are modulatory compounds. To this end, the above-described CRA was used to screen a library for compounds that interact with three control non-orphan receptors, and the results of this screen were compared to the results of screening the same library for compound that were identified using a Fluorometric Imaging Plate Reader (FLIPR) assay, a conventional technique commonly used to identify compounds interacting with non-orphan GPCRs signaling through Ca^++. Three non-orphan GPCRs—Muscarinic acetylcholine receptor M1 (CHRM1), Adrenergic receptor alpha 1a (ADRA1a), and Neuropeptide S receptor (NPSR)—were screened against a 10,000-compound GPCR-focused library. Thirty interacting compound “hits” were identified using the CRA, and eighty-one hits were identified using the FLIPR for the CHRM1 receptor; 9 CRA hits and 29 FLIPR hits for the NPS receptor were identified; and 110 CRA hits and 110 FLIPR hits for ADRA1a.
In addition, the CRA can also provide the relative potencies of compounds against the target receptor.

human PBMC = test: IL-2 in supernatants of human PBMC stimulated with anti-CD3 and anti-CD28, ELISA; settings: human PBMC donor 8, 24 hours post-stimulation; compound 10 1 μM, ZM-241385 0.1 μM, APCP 10 μM; FIG. 71
Protocol: Human PBMCs, obtained from a human volunteer donor (donor 8), were dispensed in X-vivo15 media (Lonza) supplemented with Glutamax, penicillin and streptomycin, at density of 1×10^6 cells/well in a 96-well flat-bottom plate and were cultured in quadruplicate for 3 hours in the presence of:
GPR174 inhibitory compound 10 (1 μM);
CD73 inhibitory compound, adenosine 5′-(a,p-methylene)diphosphate sodium salt (APCP, Tocris, 10 μM);
Combinations of the above agents;
After which 1 μg/mL anti-CD3 antibody (UCHT1) and 0.1 μg/mL anti-CD28 antibody (CD28.2) were added to activate T cells. Supernatants from these cells were collected at 24 hours post-stimulation and the levels of IL-2 were determined by ELISA.

[3] = no ZM, 0.3 μM (compound 20: 3 μM)
[4] = no ZM, 1 μM (compound 20: 10 μM)
[5] = with ZM-241385 0.1 μM, 0.3 μM (compound 20: 3 μM)
[6] = with ZM-241385 0.1 μM, 1 μM (compound 20: 10 μM), label ZM = ZM alone

Compound	synergy with ZM on GM-CSF (greater than the sum of the increases with each inhibitor alone) (human PBMCs)	synergy with ZM on IFN-γ (greater than the sum of the increases with each inhibitor alone) (human PBMCs)	synergy with ZM on IL-2 (greater than the sum of the increases with each inhibitor alone) (human PBMCs)	synergy with ZM on TNF (greater than the sum of the increases with each inhibitor alone) (human PBMCs)	GM-CSF, ratio relative to vehicle control (human PBMCs; [3])	IFN-γ, ratio relative to vehicle control (human PBMCs; [3])	IL-2, ratio relative to vehicle control (human PBMCs; [3])	TNF, ratio relative to vehicle control (human PBMCs; [3])	GM-CSF, ratio relative to vehicle control (human PBMCs; [4])	IFN-γ, ratio relative to vehicle control (human PBMCs; [4])	IL-2, ratio relative to vehicle control (human PBMCs; [4])	TNF, ratio relative to vehicle control (human PBMCs; [4])	GM-CSF, ratio relative to vehicle control (human PBMCs; [5])	IFN-γ, ratio relative to vehicle control (human PBMCs; [5])	IL-2, ratio relative to vehicle control (human PBMCs; [5])	TNF, ratio relative to vehicle control (human PBMCs; [5])	GM-CSF, ratio relative to vehicle control (human PBMCs; [6])	IFN-γ, ratio relative to vehicle control (human PBMCs; [6])	IL-2, ratio relative to vehicle control (human PBMCs; [6])	TNF, ratio relative to vehicle control (human PBMCs; [6])	other results
O=[N+]([O-])c1cc(F)c(N2CCCCC2)cc1N1CCN(S(=O)(=O)c2ccccc2)CC1 [compound 11]	synergized with ZM	synergized with ZM	synergized with ZM	synergized with ZM	2.9*	1.9*	1.4*	1.7*	2.4*	1.8*	1.3	1.7*	4.4*	2.9*	1.8*	2.6*	4.9*	3.4*	1.9*	3.0*	EC50 (GPR174 [1]; multiple values = separate experiments): > 1100 nM; Gs pathway in the presence of ADBR2 (CRE-Luc reporter) (ADBR2): did not inhibit; Gs pathway in the presence of GPR174 (CRE-Luc reporter) (GPR174 [2]; increasing concentrations of compound): inhibited; Fold decrease in Gs signaling activity (GPR174 [2]; pCRE-Luc reporter): 3.1 fold; EC50 (GPR174 [2]; pCRE-Luc reporter, multiple values = separate experiments): 500 nM and 1300 nM and 600 nM
Cc1ccccc1Nc1nnc(-c2ccc(C)c(S(N)(=O)=O)c2)c2ccccc12 [compound 20]	synergized with ZM	synergized with ZM	synergized with ZM	synergized with ZM	2.7*	1.2	1.3	1.4*	2.3*	1.5*	1.4*	1.5*	4.6*	1.8*	1.6*	1.9*	4.4*	2.1*	2.1*	2.4*	dose-response curve against GPR174 in the CRA (FIG. 5A) (GPR174 [1]): show a dose-response curve; activity against CHRM1 in the CRA (FIG. 5B) (CHRM1): do not show any activity; Human GPR174 CRE Activity: nature of the compound (IA, antagonist, NM) (GPR174 [2]; pCRE-Luc reporter): Antagonist or allosteric modulator
adenosine 5′-(a,p-methylene)diphosphate sodium salt [APCP]	–	–	–	–	–	–	–	–	–	–	–	–	–	–	–	–	–	–	–	–	increase of IL-2 levels (human PBMC): 1.5 fold
